Data set [1] can be described thus: Antiproliferative activity against human 293T cells measured after 24 hrs by MTT assay. It is filed as cell-based. As to conditions: 293T (HEK-293T) cells. For orientation: Tetrazolium dyes change colour on reduction, which living cells bring about.
Another data set has as its system MCF7. The data set can be described thus: Antiproliferative activity against human MCF7 cells measured after 24 hrs by MTT assay. It is filed as functional, cell-based. To be noted: MCF7, 24 h.
Data set [2] in a line: Inhibition of tubulin polymerization in bovine brain assessed as reduction in tubulin assembly after 20 mins by spectrophotometric method. Also noted: species or system Bos taurus.
The next data set has as its system HepG2. The data set can be described thus: Antiproliferative activity against human HepG2 cells measured after 24 hrs by MTT assay. It is filed as functional, cell-based. As to conditions: HepG2, 24 h.
The next data set deals with A549. As to the kind of experiment: Antiproliferative activity against human A549 cells measured after 24 hrs by MTT assay. In kind it is functional, cell-based. To be noted: A549, 24 h.
The subject of data set [3] is HeLa. As to the kind of experiment: Antiproliferative activity against human HeLa cells measured after 24 hrs by MTT assay. It is filed as functional, cell-based.
The test system of data set [4] is HeLa. As to the kind of experiment: Inhibition of microtubule polymerization in human HeLa cells at 0.2 uM after 24 hrs by DAPI staining based confocal microscopic analysis. It is filed as cell-based.

pIC50: −log10 of the molar value. Active and inactive are the calls of the source. The rule behind the calls is not given here.

The record followed here is ChEMBL document CHEMBL3992485 (Medchemcomm, 2016).

By CC50 is commonly meant the concentration at which the toxic effect on the cells reaches its halfway point. Higher therefore signals lower toxicity to the cells. As usually defined, the pIC50 is −log10 of the IC50, conventionally taken in molar units. Consider `O=C(c1cn(Cc2ccccc2)c2ccccc12)N1CCN(S(=O)(=O)c2ccc(Br)cc2)CC1`, for which, in data set [1], the CC50 at 24 h was 326 µM. The pIC50 with MCF7 is 4.42; in data set [2], 5.17; in the data set with HepG2, 4.41; with A549 it was less than 4.00; in the data set with HeLa [3] it was 4.45.
In turn, `Cn1cc(C(=O)N2CCN(S(=O)(=O)c3ccc(Br)cc3)CC2)c2ccccc21` gave a cytotoxic concentration (CC50) at 24 h in data set [1] of 295 µM. The pIC50 with MCF7 is 4.76; in data set [2] it was 5.40; in the data set on HepG2 it was 5.24; with A549 it was 5.19; with HeLa [3] it was 5.01.
In the case of `Cc1ccc(S(=O)(=O)N2CCN(C(=O)c3cn(Cc4ccccc4)c4ccccc34)CC2)cc1`, the CC50 at 24 h in data set [1] was determined as 321 µM. Moreover, the pIC50 in the data set with MCF7 is 4.73; in data set [2], 5.52; with HepG2, 4.48; in the data set on A549, 4.77; with HeLa [3], 5.00.
For `CCCn1cc(C(=O)N2CCN(S(=O)(=O)c3ccc(C)cc3)CC2)c2ccccc21`, it took 357 µM to reach half-maximal cytotoxicity in data set [1] (CC50 at 24 h). Moreover, the pIC50 in the data set with MCF7 is 4.78; in data set [2], 5.50; with HepG2 it was 4.60; with A549, 4.83; in the data set on HeLa [3], 4.97.
`CCCn1cc(C(=O)N2CCN(S(=O)(=O)c3ccc([N+](=O)[O-])cc3)CC2)c2ccccc21` displayed a CC50 at 24 h in data set [1] of 464 µM. Besides, the negative logarithm of the IC50 (pIC50) in the data set on MCF7 was less than 4.00; in data set [2], 4.35; with HepG2, less than 4.00; in the data set with A549 it was less than 4.00; in the data set with HeLa [3], less than 4.00.
With `Cn1cc(C(=O)N2CCN(S(=O)(=O)c3ccc([N+](=O)[O-])cc3)CC2)c2ccccc21`, the midpoint of cytotoxicity in data set [1], the CC50 at 24 h, lay at 374 µM. The pIC50 in the data set on MCF7 was 4.49; in data set [2], 5.45; in the data set on HepG2, 4.55; in the data set on A549, 4.35; with HeLa [3], 4.81.
Consider `CC(C)c1cc(C(C)C)c(S(=O)(=O)N2CCN(C(=O)c3cn(Cc4ccccc4)c4ccccc34)CC2)c(C(C)C)c1`, for which the CC50 at 24 h in data set [1] was 295 µM. In addition, the pIC50 in the data set with MCF7 was 4.85; in data set [2] it was 5.44; in the data set with HepG2, 4.75; in the data set on A549, 4.97; with HeLa [3], 4.74.
In data set [1], `CCn1cc(C(=O)N2CCN(S(=O)(=O)c3ccc(Cl)cc3)CC2)c2ccccc21` yielded a CC50 at 24 h of 275 µM. The pIC50 in the data set with MCF7 was 4.33; in data set [2], 4.35; in the data set on HepG2, 4.43; in the data set with A549, less than 4.00; in the data set with HeLa [3], less than 4.00.
With `CCCn1cc(C(=O)N2CCN(S(=O)(=O)c3ccccc3)CC2)c2ccccc21`, half-maximal cytotoxicity in data set [1] (CC50 at 24 h) was put at 485 µM. Further, the negative-log IC50 (pIC50) with MCF7 was 4.63; in data set [2], 4.31; in the data set on HepG2 it was 4.53; with A549, 4.63; in the data set on HeLa [3] it was less than 4.00.
`COc1cc2c(c(OC)c1OC)-c1ccc(OC)c(=O)cc1[C@@H](NC(C)=O)CC2` [COLCHICINE] had a CC50 at 24 h in data set [1] of 152 µM. For the same molecule, the pIC50 with MCF7 was 6.27; with HepG2, 6.19; with A549, 6.33; in the data set on HeLa [3], 6.35. Moreover, the inhibition entry in the data set with HeLa [4] was “Active”.
`CCn1cc(C(=O)N2CCN(S(=O)(=O)c3ccc(Br)cc3)CC2)c2ccccc21` registered a CC50 at 24 h in data set [1] of 354 µM. In addition, the negative-log IC50 (pIC50) was 4.56 in the data set on MCF7; 5.31 in data set [2]; 4.58 with HepG2; 4.31 with A549; 4.48 with HeLa [3].
In the case of `CC(=O)O[C@H]1C(=O)[C@@]2(C)[C@H]([C@H](OC(=O)c3ccccc3)[C@]3(O)C[C@H](OC(=O)[C@H](O)[C@@H](NC(=O)c4ccccc4)c4ccccc4)C(C)=C1C3(C)C)[C@]1(OC(C)=O)CO[C@@H]1C[C@@H]2O`, the inhibition entry in the data set on HeLa [4] is “inactive”.
As to `CCCn1cc(C(=O)N2CCN(S(=O)(=O)c3c(C(C)C)cc(C(C)C)cc3C(C)C)CC2)c2ccccc21`, the CC50 at 24 h in data set [1] worked out at 311 µM. The negative logarithm of the IC50 (pIC50) is 4.94 with MCF7; 5.54 in data set [2]; 4.78 with HepG2; 4.76 with A549; 4.83 in the data set on HeLa [3].
Turning to `Cc1ccc(S(=O)(=O)N2CCN(C(=O)c3cn(C)c4ccccc34)CC2)cc1`, the CC50 at 24 h in data set [1] was 353 µM. Further, the pIC50 is 5.19 in the data set on MCF7; 5.67 in data set [2]; 5.74 with HepG2; 5.13 in the data set with A549; 5.44 with HeLa [3].
In data set [1], `O=C(c1cn(Cc2ccccc2)c2ccccc12)N1CCN(S(=O)(=O)c2ccc([N+](=O)[O-])cc2)CC1` registered a 50% cytotoxic concentration (CC50) at 24 h of 347 µM. Also, the pIC50 in the data set with MCF7 is 4.30; in data set [2], 5.16; with HepG2, less than 4.00; in the data set on A549, less than 4.00; with HeLa [3] it was 4.37.
Take `CCCn1cc(C(=O)N2CCN(S(=O)(=O)c3ccc(Cl)cc3)CC2)c2ccccc21`: the CC50 at 24 h in data set [1] came to 537 µM. Moreover, the pIC50 was less than 4.00 in the data set with MCF7; 4.34 in data set [2]; 4.30 in the data set on HepG2; less than 4.00 in the data set with A549; less than 4.00 in the data set with HeLa [3].
Take `Cn1cc(C(=O)N2CCN(S(=O)(=O)c3ccc(Cl)cc3)CC2)c2ccccc21`: in data set [1], half-maximal cytotoxicity (CC50 at 24 h) was put at 257 µM. Also, the pIC50 is 4.53 in the data set on MCF7; 5.48 in data set [2]; 4.79 in the data set on HepG2; 4.60 with A549; 4.93 in the data set on HeLa [3].
`CCCn1cc(C(=O)N2CCN(S(=O)(=O)c3ccc(Br)cc3)CC2)c2ccccc21` registered a 50% cytotoxic concentration (CC50) at 24 h in data set [1] of 463 µM. Also, the negative logarithm of the IC50 (pIC50) was 4.19 with MCF7; 4.56 in data set [2]; 4.35 in the data set with HepG2; 4.40 in the data set on A549; 4.56 in the data set with HeLa [3].
The molecule `O=C(c1cn(Cc2ccccc2)c2ccccc12)N1CCN(S(=O)(=O)c2ccccc2)CC1` gave a CC50 at 24 h in data set [1] of 262 µM. Moreover, the pIC50 was 4.45 with MCF7; 5.25 in data set [2]; 4.56 in the data set with HepG2; 4.65 with A549; 4.67 in the data set on HeLa [3].
Molecule `CCn1cc(C(=O)N2CCN(S(=O)(=O)c3ccc([N+](=O)[O-])cc3)CC2)c2ccccc21` returned a CC50 at 24 h in data set [1] of 436 µM. The pIC50 in the data set on MCF7 was 4.29; in data set [2], 5.26; with HepG2, 4.16; in the data set with A549, 4.20; in the data set with HeLa [3] it was 4.32.
In turn, `Cn1cc(C(=O)N2CCN(S(=O)(=O)c3ccccc3)CC2)c2ccccc21` registered a cytotoxic concentration (CC50) at 24 h in data set [1] of 314 µM. The pIC50 with MCF7 was 5.03; in data set [2] it was 5.56; in the data set on HepG2, 5.34; in the data set on A549, 4.81; in the data set on HeLa [3] it was 5.11.
In the case of `CC(C)c1cc(C(C)C)c(S(=O)(=O)N2CCN(C(=O)c3cn(C)c4ccccc34)CC2)c(C(C)C)c1`, the CC50 at 24 h in data set [1] was 383 µM. For the same molecule, the pIC50 in the data set on MCF7 was 6.20; in data set [2], 5.71; with HepG2, 6.35; in the data set with A549, 6.03; in the data set on HeLa [3], 6.43.
For the molecule `CCn1cc(C(=O)N2CCN(S(=O)(=O)c3ccccc3)CC2)c2ccccc21`, the CC50 at 24 h in data set [1] was 366 µM. Moreover, the pIC50 in the data set on MCF7 is 4.64; in data set [2], 5.43; with HepG2, 4.83; with A549 it was less than 4.00; in the data set on HeLa [3], 4.80.
`O=C(c1cn(Cc2ccccc2)c2ccccc12)N1CCN(S(=O)(=O)c2ccc(Cl)cc2)CC1`: the CC50 at 24 h in data set [1] was 472 µM. Besides, the pIC50 with MCF7 is 4.33; in data set [2] it was 5.22; in the data set on HepG2 it was less than 4.00; in the data set with A549, 4.26; in the data set on HeLa [3] it was less than 4.00.
`CCn1cc(C(=O)N2CCN(S(=O)(=O)c3ccc(C)cc3)CC2)c2ccccc21`: the half-maximal cytotoxic concentration (CC50) at 24 h in data set [1] was 298 µM. In addition, the pIC50 in the data set with MCF7 is 4.61; in data set [2], 5.43; with HepG2, 5.13; in the data set with A549, 4.61; in the data set on HeLa [3] it was 4.89.
